How the values were obtained:
Format in all cases: cell-based
hTREK1 [1] = target: T1, hTREK1 (Homo sapiens, UniProt O95069); experiment: Automated whole-cell patch clamp (Qpatch), CHO–TREK1 cells; set-up: expressed in transfected cells; conditions: 1 μM; stably transfected CHO cells
T1 sequence (O95069 1-426): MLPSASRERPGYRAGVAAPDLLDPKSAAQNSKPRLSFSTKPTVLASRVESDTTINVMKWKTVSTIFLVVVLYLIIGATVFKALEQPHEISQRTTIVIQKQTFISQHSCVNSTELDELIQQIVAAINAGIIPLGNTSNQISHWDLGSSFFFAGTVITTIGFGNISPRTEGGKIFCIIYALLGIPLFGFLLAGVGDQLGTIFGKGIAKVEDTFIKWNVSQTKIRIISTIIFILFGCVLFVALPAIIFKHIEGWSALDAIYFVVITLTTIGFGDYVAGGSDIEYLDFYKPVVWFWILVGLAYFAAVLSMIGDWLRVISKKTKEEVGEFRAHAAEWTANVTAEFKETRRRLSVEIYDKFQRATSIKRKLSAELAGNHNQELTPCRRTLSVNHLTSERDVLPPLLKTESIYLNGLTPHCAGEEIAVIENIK
Procedure: Automated patch‐clamp studies were performed with the Qpatch Sophion Bioscience A/S (Ballerup, Denmark) automated patch‐clamp platform. Sixteen‐well Qplates were loaded with CHO cells stably expression human recombinant TREK1 (CHO–TREK1 cells) in external buffer containing (in mM) 148 NaCl, 5 KCl, 1 CaCl2, 1 MgCl2, 10 HEPES and 10 glucose. Internal recording solution was (in mM) 100 K gluconate, 40 KCl, 1 MgCl2, 10 BAPTA, 10 HEPES and 1 MgATP.
Supplementary Information
Supplementary Figure S1: Activation of hTREK1 current by GI-530159 in automated patch […]
Figure S1: Activation of hTREK1 current by GI-530159 in automated patch recordings.
A) Human TREK1 current elicited by pulse protocol shown recorded on Qpatch 16 automated patch clamp platform after administration of 0.1% DMSO vehicle, 1 µM GI-530159 or after washout with 0.1% DMSO. B) Time course of TREK1 current amplitude recorded at 0 mV on Qpatch platform before during and after washout of 1 µM GI-530159.
(1 picture or pasted object on this page, not shown here)

hTREK1 [2] = target: T1, hTREK1; experiment: 86Rb efflux from CHO–hTREK1 cells; set-up: expressed in transfected cells; conditions: 60 min exposure, fit of logistic equation
Procedure: CHO–hTREK1 cells were plated on 96‐well, tissue culture‐treated clear plates (92 696) the day before the assay and incubated overnight at 37°C in the presence of 1 μCi·mL^−1 86Rubidium (Rb, NEZ072, Perkin Elmer, Waltham MA, USA). Prior to commencement of the assay, the ^86Rb spiked media were removed from the plate, and cells were washed four times with 100 μL of a 5 mM K^+ ‘Earle's balance salt solution’ (EBSS) buffer containing 135 mM NaCl, 5.4 mM KCl, 1.8 mM CaCl2, 0.8 mM MgCl2,10 mM HEPES and 5 mM glucose, pH 7.4 (adjusted with NaOH). […] Both counting plates were then read on the Wallac Microbeta to measure ^86Rb content [counts per min (CPM)]. % ^86Rb efflux values were calculated as follows: ^86Rbefflux%cell content=CPMin efflux buffer/CPMin efflux buffer+CPMin cell lysate*100.
Magnitude of ^86Rb efflux stimulation was calculated as follows: %Activation=%efflux test well−efflux in5.4mMK^+EBSS/Efflux in70mMK^+EBSS−efflux in5.4mMK^+EBSS*100.
Half maximal activation of ^86Rb efflux (EC50) value was calculated using IDBS Xlfit using a four‐parameter logistic equation and expressed as mean ± SEM.

NaV1.2 = NaV1.2 (Homo sapiens, UniProt Q99250); experiment: Sodium channel selectivity, NaV1.2; conditions: read-out: EC50 against NaV1.2
NaV1.7 = NaV1.7 (Homo sapiens, UniProt Q15858); experiment: Sodium channel selectivity, NaV1.7; conditions: read-out: EC50 against NaV1.7
KCa1.1 (BK) = KCa1.1 (BK) (Homo sapiens, UniProt Q12791); experiment: Manual patch clamp in recombinant cell lines, BK; conditions: 10 μM; n = 4
hTREK2 = target: T2, hTREK2 (Homo sapiens, UniProt P57789); experiment: Whole-cell patch clamp, transiently transfected tsA-201 cells, TREK2; conditions: 1 μM, n = 6
T2 construct: expressed in transfected cells; host or cells: tsA-201, transient, pcDNA3.1 vector
Procedure: (§1) Recordings of hTREK1, hTREK1∆N, hTREK2, hTRAAK and […] currents from transiently transfected tsA‐201 cells were performed using methods as described in Veale and Mathie (2016). Briefly, the pcDNA3.1 vector was cloned with the gene of interest, and these vectors and a similar vector containing GFP were incorporated into the tsA201 cells (0.5 μg per well) using the calcium phosphate method. The cells were incubated for 6–12 h at 37°C in […] and 5% carbon dioxide. Cells were then washed using a PBS solution and used for experiments after 24 h.
(§2) Currents were recorded using whole‐cell patch‐clamp using an Axopatch 1D amplifier. Cells were placed in a recording chamber filled with an external medium composed of 145 mM, NaCl, 2.5 mM KCl, 3 mM MgCl2, 1 mM CaCl2 and 10 mM HEPES (pH to 7.4, using NaOH). The internal medium used in the glass pipette comprised 150 mM KCl, 3 mM MgCl2, 5 mM (or 0.1 mM) EGTA and 10 mM HEPES (pH to 7.4, using KOH). GI‐530159 was applied by bath perfusion. Currents were recorded and analysed using pCLAMP 10.2 software Microsoft Excel. The voltage protocol used for recording current through K2P channels was as previously described (Veale and Mathie, 2016). For analysis, we measured the current difference between the −80 and −40 mV steps.

Kv7.2 = Kv7.2 (Homo sapiens, UniProt O43526); experiment: Rb+ efflux assay, Kv7.2
THIK1 (K2P13.1) = target: T3, THIK1 (K2P13.1) (Homo sapiens, UniProt Q9HB14); experiment: Whole-cell patch clamp, THIK1 channels; conditions: 1 μM; n = 7
T3 construct: expressed in transfected cells; host or cells: tsA-201, transient, pcDNA3.1 vector
Procedure: as §1, §2

T3 sequence (Q9HB14 whole entry): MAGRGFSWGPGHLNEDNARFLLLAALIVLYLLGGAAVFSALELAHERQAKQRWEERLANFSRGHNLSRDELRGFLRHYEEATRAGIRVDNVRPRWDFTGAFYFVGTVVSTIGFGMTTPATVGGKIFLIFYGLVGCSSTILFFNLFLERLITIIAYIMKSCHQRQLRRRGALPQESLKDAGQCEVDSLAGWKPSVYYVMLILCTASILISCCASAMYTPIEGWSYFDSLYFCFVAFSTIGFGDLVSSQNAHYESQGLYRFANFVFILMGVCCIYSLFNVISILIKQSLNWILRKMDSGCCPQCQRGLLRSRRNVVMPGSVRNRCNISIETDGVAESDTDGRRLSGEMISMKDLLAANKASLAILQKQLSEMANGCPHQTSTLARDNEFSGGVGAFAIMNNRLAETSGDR
NaV1.2, sequence (Q99250 whole entry): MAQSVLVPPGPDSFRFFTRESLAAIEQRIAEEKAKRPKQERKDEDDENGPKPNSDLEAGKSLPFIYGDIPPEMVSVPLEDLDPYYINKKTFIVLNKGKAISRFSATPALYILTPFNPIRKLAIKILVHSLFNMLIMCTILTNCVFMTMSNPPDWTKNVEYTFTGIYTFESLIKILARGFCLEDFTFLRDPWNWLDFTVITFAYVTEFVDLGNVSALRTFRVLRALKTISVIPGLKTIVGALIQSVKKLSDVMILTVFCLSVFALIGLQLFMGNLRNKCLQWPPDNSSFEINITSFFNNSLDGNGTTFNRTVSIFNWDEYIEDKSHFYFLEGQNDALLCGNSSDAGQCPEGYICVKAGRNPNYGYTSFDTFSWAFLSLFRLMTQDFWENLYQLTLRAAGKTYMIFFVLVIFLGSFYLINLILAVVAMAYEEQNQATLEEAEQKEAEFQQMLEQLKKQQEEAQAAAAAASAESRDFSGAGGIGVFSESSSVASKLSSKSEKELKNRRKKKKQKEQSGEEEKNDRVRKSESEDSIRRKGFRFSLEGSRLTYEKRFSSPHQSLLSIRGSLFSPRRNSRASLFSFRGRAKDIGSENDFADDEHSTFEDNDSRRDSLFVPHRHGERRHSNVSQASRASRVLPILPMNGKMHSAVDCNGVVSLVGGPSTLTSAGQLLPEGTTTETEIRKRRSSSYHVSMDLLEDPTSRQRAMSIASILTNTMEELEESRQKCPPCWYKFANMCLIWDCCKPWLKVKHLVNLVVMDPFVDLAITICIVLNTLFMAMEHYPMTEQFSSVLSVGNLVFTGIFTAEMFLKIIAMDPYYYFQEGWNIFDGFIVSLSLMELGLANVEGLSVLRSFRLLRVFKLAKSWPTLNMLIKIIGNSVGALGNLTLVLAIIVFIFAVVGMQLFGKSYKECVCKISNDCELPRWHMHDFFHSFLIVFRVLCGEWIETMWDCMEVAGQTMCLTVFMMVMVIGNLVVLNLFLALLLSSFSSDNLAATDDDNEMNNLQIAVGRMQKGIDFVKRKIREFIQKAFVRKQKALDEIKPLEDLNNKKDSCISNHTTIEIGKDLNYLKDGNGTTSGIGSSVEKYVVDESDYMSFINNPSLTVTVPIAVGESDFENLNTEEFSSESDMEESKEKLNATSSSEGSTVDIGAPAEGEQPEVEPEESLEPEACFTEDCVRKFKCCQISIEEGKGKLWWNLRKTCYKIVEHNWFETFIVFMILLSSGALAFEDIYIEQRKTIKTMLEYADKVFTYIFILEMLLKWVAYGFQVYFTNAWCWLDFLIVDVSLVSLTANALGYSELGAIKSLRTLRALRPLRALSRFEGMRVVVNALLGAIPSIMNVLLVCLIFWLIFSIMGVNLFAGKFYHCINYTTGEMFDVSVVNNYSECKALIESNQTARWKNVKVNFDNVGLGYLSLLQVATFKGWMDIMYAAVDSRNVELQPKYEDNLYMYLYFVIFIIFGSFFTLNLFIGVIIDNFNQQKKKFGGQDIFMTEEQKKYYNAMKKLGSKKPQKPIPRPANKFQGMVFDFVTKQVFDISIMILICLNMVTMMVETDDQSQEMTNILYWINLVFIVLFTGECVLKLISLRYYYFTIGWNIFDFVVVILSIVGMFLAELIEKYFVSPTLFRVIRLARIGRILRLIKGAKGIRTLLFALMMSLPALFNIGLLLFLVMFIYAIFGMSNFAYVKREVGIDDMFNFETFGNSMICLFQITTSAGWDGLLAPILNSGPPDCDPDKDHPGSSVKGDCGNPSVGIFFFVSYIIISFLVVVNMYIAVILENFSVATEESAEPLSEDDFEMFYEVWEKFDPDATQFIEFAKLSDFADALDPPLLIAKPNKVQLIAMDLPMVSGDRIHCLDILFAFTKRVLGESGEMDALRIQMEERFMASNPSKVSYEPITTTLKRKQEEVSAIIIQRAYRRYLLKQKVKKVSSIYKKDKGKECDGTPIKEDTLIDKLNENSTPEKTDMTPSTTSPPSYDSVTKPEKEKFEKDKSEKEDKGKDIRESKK
KCa1.1 (BK), sequence (Q12791 whole entry, species assumed): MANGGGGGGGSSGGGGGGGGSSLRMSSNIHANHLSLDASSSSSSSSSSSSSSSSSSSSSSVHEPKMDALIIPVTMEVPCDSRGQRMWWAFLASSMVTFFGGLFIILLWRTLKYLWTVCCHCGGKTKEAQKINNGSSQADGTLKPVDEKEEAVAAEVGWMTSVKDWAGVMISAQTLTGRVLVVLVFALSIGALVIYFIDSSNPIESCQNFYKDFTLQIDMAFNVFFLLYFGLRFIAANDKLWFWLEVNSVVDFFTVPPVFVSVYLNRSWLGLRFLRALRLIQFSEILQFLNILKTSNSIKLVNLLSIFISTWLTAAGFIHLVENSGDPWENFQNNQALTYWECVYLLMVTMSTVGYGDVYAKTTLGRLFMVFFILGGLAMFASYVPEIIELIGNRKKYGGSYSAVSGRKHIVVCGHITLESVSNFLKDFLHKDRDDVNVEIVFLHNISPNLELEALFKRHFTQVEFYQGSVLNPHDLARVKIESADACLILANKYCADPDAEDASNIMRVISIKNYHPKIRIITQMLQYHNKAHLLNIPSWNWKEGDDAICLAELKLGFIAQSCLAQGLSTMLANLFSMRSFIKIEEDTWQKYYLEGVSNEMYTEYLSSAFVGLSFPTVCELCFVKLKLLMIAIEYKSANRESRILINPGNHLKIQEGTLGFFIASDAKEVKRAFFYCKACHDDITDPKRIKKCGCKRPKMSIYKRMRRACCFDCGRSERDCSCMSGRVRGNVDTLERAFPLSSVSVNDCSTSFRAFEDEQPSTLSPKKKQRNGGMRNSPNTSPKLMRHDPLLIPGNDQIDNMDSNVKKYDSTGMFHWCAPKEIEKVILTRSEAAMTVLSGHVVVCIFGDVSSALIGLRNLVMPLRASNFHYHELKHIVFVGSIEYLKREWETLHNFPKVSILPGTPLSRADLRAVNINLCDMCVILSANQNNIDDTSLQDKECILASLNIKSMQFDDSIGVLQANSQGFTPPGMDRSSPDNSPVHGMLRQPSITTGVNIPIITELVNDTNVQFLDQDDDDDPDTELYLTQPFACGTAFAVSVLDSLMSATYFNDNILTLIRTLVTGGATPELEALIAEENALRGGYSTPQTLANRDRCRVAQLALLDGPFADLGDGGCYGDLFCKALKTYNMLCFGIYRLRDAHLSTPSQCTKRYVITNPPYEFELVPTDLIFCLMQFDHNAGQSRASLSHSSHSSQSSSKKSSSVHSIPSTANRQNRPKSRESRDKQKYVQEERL
T2 sequence (P57789 whole entry): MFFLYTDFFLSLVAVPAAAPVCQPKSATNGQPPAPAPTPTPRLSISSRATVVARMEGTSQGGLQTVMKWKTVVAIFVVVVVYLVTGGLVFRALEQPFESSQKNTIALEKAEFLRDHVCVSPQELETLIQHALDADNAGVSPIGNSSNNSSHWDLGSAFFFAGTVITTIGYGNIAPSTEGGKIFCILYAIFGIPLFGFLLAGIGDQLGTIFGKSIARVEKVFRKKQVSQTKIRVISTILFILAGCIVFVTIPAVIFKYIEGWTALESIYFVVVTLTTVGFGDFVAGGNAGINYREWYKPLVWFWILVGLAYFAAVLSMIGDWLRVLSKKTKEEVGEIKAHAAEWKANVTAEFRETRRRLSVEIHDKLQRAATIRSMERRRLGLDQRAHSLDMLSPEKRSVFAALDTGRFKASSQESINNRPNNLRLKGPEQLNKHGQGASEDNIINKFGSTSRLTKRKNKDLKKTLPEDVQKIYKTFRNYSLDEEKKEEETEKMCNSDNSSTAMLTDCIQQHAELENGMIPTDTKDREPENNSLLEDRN

Nc1ccc(Oc2ccc(C(c3ccc(Oc4ccc(N)cc4)cc3)(C(F)(F)F)C(F)(F)F)cc2)cc1 [GI‐530159, 4,4′‐(hexafluoroisopropylidene)bis(p‐phenyleneoxy)dianiline]
effect on hTREK1 current, Qpatch (hTREK1 [1]): effective at reversibly enhancing current | EC50 (hTREK1 [2]; read-out: EC50 for stimulation of 86Rb efflux): 0.76 ± 0.1 µM | Emax (hTREK1 [2]; normalized to 70 mM K, read-out: maximum effect on 86Rb efflux, % of that seen with 70 mM K): 142 ± 2% | EC50 (NaV1.2): > 100 µM | EC50 (NaV1.7): > 100 µM | effect on KCa1.1 (BK) current (KCa1.1 (BK)): −3.3 ± 6.7% | enhancement of TREK2 current (hTREK2): 42 ± 6% | activator effect on Kv7.2 (Kv7.2): no activator effects | effect on THIK1 (K2P13.1) current (THIK1 (K2P13.1)): 0 ± 3%

— paper PMC5980259, “GI‐530159, a novel, selective, mechanosensitive two‐pore‐domain potassium (K2P) channel opener, reduces rat dorsal root ganglion neuron excitability” (British Journal of Pharmacology, 2017)
